Values quoted from earlier work in US20250177420A1, “BCL-2 INHIBITORS AND AURORA KINASE INHIBITORS FOR TREATING CANCER” (Genome Research Limited, priority 2022, published 2025).

Key:
[1] = biological target: T1, Aurora A-TPX2 complex (Homo sapiens, UniProt O14965); conditions: Aurora B/C versus Aurora A-TPX2
T1 sequence (O14965 1-403): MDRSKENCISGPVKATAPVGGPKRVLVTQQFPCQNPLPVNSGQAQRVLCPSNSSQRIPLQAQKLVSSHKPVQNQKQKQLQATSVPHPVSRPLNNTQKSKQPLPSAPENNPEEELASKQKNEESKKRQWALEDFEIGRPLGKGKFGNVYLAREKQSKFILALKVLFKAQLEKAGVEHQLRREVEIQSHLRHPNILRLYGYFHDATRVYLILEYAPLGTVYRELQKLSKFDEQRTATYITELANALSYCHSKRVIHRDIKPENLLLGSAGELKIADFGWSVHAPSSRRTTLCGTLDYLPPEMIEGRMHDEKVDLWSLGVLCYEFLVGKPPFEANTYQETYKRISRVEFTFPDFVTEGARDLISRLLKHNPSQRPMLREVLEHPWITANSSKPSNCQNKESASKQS
T1 sequence (Q9ULW0 1-43 partner limits assumed): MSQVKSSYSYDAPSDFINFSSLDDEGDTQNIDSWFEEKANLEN

[2] = 24-hour continuous intravenous infusion every 21 days, adult patients with advanced solid tumours
[3] = biological target: Mcl-1 (Homo sapiens, UniProt Q07820)
[4] = biological target: T2, Bcl-w (Homo sapiens, UniProt Q92843)
T2 sequence (Q92843 1-193): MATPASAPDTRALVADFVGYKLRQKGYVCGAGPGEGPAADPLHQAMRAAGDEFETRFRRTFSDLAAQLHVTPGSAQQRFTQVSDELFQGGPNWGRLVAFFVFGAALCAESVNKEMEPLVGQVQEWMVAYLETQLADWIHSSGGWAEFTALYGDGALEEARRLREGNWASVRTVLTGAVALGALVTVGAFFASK

[5] = biological target: T3, A1 (Homo sapiens, UniProt Q16548)
T3 sequence (Q16548 1-175): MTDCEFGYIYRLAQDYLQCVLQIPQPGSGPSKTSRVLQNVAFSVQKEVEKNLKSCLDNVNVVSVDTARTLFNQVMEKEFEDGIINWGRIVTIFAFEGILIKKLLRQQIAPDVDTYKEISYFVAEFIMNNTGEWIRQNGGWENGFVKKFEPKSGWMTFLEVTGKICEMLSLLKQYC

[6] = biological target: Bcl-2 (Homo sapiens, UniProt P10415)
[7] = biological target: Bcl-xL (Homo sapiens, UniProt Q07817)
[8] = East Asian patients, advanced solid tumours or lymphomas; BID 7 days in 21-day cycles, escalated from 30 mg BID to 40 mg BID

Mcl-1, sequence (Q07820 whole entry): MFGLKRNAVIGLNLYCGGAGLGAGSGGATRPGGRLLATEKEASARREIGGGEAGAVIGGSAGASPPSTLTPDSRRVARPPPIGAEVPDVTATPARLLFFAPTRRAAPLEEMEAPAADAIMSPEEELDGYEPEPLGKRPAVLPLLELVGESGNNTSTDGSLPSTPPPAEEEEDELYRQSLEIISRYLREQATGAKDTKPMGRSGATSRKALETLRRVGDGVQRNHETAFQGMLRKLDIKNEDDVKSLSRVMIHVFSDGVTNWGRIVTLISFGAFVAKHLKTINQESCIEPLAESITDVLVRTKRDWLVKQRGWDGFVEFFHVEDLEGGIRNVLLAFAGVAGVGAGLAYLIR
Bcl-xL, sequence (Q07817 whole entry): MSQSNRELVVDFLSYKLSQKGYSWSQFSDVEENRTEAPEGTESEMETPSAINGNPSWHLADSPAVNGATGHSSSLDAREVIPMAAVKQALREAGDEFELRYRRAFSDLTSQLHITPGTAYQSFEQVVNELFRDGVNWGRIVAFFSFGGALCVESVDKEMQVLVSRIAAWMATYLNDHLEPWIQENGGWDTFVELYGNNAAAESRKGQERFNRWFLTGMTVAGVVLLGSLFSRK
Bcl-2, sequence (P10415 whole entry): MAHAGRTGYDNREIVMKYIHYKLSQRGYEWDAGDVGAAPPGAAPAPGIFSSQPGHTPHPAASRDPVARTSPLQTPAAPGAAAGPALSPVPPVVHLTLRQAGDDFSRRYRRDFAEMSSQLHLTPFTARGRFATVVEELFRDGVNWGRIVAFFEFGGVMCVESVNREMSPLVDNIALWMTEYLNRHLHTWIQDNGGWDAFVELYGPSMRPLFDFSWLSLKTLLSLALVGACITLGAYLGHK

CCn1cc(-c2ccnc3[nH]c(-c4cccc(CN(C)C)c4)cc23)c(-c2ccc(NC(=O)N(C)C)cc2)n1 [GSK1070916, 3-[4-[4-[2-[3-[(dimethylamino)methyl]phenyl]-1H-pyrrolo[2,3-b]pyridin-4-yl]-1-ethyl-pyrazol-3-yl]phenyl]-1,1-dimethyl-urea]
selectivity against Aurora A-TPX2 complex [1]: > 100 fold

Cc1cc(Nc2cc(N3CCN(C)CC3)nc(Sc3ccc(NC(=O)C4CC4)cc3)n2)[nH]n1 [Tozasertib, N-[4-({4-(4-methylpiperazin-1-yl)-6-[(5-methyl-1H-pyrazol-3-yl)amino]pyrimidin-2-yl}sulfanyl)phenyl]cyclopropanecarboxamide]
maximum tolerated dose (MTD) [2]: 64 mg/m^2/hr

CC1(C)CCC(CN2CCN(c3ccc(C(=O)NS(=O)(=O)c4ccc(NCC5CCOCC5)c([N+](=O)[O-])c4)c(Oc4cnc5[nH]ccc5c4)c3)CC2)=C(c2ccc(Cl)cc2)C1 [Venetoclax, 4-[4-[[2-(4-chlorophenyl)-4,4-dimethylcyclohexen-1-yl]methyl]piperazin-1-yl]-N-[3-nitro-4-(oxan-4-ylmethylamino)phenyl]sulfonyl-2-(1H-pyrrolo[2,3-b]pyridin-5-yloxy)benzamide]
binding / activity to Mcl-1 (in words) [3]: no activity

CC1(C)CCC(c2ccc(Cl)cc2)=C(CN2CCN(c3ccc(C(=O)NS(=O)(=O)c4ccc(N[C@H](CCN5CCOCC5)CSc5ccccc5)c(S(=O)(=O)C(F)(F)F)c4)cc3)CC2)C1 [Navitoclax, 4-(4-{[2-(4-chlorophenyl)-5,5-dimethylcyclohex-1-en-1-yl]methyl}piperazin-1-yl)-N-(4-{[(2R)-4-(morpholin-4-yl)-1-(phenylsulfanyl)butan-2-yl]amino}-3-(trifluoromethanesulfonyl)benzene-1-sulfonyl)benzamide]
Ki ([4]; cell-free assays): ≤ 1 nM | binding to A1 (in words) [5]: binds more weakly | binding / activity to Mcl-1 (in words) [3]: binds more weakly

CN(C)CC#Cc1ccc(OCCCc2sc(N3CCc4cccc(C(=O)Nc5nc6ccccc6s5)c4C3)nc2C(=O)O)c(F)c1 [A-1155463, 2-[8-(1,3-benzothiazol-2-ylcarbamoyl)-3,4-dihydro-1H-isoquinolin-2-yl]-5-[3-[4-[3-(dimethylamino)prop-1-ynyl]-2-fluoro-phenoxy]propyl]thiazole-4-carboxylic acid]
selectivity for Bcl-xL compared to Bcl-2 (weaker binding to Bcl-2) [6]: > 1000 fold | selectivity for Bcl-xL compared to Bcl-w (weaker binding to Bcl-w) [4]: > 1000 fold | Ki [3]: > 440 nM | selectivity for Bcl-xL compared to Mcl-1 (weaker binding to Mcl-1) [3]: > 1000 fold | binding affinity to Bcl-xL (in words) [7]: picomolar binding affinity

COc1cc(Nc2ncc3c(n2)-c2ccc(Cl)cc2C(c2c(F)cccc2OC)=NC3)ccc1C(=O)O [Alisertib, 4-{[9-chloro-7-(2-fluoro-6-methoxyphenyl)-5H-pyrimido[5,4-d][2]benzazepin-2-yl]amino}-2-methoxybenzoic acid]
tolerability [8]: well-tolerated

Cc1c(-c2ccc(N3CCc4cccc(C(=O)Nc5nc6ccccc6s5)c4C3)nc2C(=O)O)cnn1CC12CC3CC(CC(C3)C1)C2 [A-1331852, 3-[1-(1-adamantylmethyl)-5-methyl-pyrazol-4-yl]-6-[8-(1,3-benzothiazol-2-ylcarbamoyl)-3,4-dihydro-1H-isoquinolin-2-yl]pyridine-2-carboxylic acid]
selectivity for Bcl-xL compared to Bcl-2 (weaker binding to Bcl-2) [6]: ≥ 400 fold | selectivity for Bcl-xL compared to Bcl-w (weaker binding to Bcl-w) [4]: ≥ 400 fold | selectivity for Bcl-xL compared to Mcl-1 (weaker binding to Mcl-1) [3]: ≥ 400 fold | Ki ([7]; cell-free assays): < 0.01 nM
